Source: ChEMBL document CHEMBL1154431, “Synthesis of biologically active N-methyl derivatives of amidines and cyclized five-membered products of amidines with oxalyl chloride” (2008)

Key:
Assay type in all cases: functional
Mus musculus [1] = experiment: Analgesic activity in mouse assessed as decrease in acetic acid-induced writhing at 50 mg/kg, po administered 30 mins before acetic acid challenge measured after 1 hr; set-up: scale not given: the % may be the effect or the level left
Rattus norvegicus [2] = experiment: Antiinflammatory activity against carrageenan-induced paw edema in albino rat at 50 mg/kg, po administered 30 mins before carrageenan challenge measured after 1 to 3 hrs
Mus musculus [3] = experiment: Analgesic activity in mouse assessed as decrease in acetic acid-induced writhing at 100 mg/kg, po administered 30 mins before acetic acid challenge measured after 1 hr; set-up: scale not given: the % may be the effect or the level left
Rattus norvegicus [4] = experiment: Antiinflammatory activity against carrageenan-induced paw edema in albino rat at 100 mg/kg, po administered 30 mins before carrageenan challenge measured after 1 to 3 hrs
Mus musculus [5] = experiment: Analgesic activity in mouse assessed as decrease in acetic acid-induced writhing at 25 mg/kg, po administered 30 mins before acetic acid challenge measured after 1 hr; set-up: scale not given: the % may be the effect or the level left
Rattus norvegicus [6] = experiment: Antiinflammatory activity against carrageenan-induced paw edema in albino rat at 25 mg/kg, po administered 30 mins before carrageenan challenge measured after 1 to 3 hrs

Row | SMILES | Activity (Mus musculus [1]) [%] | Activity (Rattus norvegicus [2]) [%] | Activity (Mus musculus [3]) [%] | Activity (Rattus norvegicus [4]) [%] | Activity (Mus musculus [5]) [%] | Activity (Rattus norvegicus [6]) [%]
1 | C/N=C(/NNS(=O)(=O)c1ccc(OC)cc1)c1ccccn1 | 20 | 20 | – | – | – | –
2 | Cc1ccc(S(=O)(=O)NN2C(=O)C(=O)N=C2c2ccccn2)cc1 | 60 | 31 | – | – | – | –
3 | O=C1N=C(c2ccncc2)N(NS(=O)(=O)c2ccccc2)C1=O | 60 | 37 | – | – | – | –
4 | COc1ccc(S(=O)(=O)NN2C(=O)C(=O)N=C2c2ccncc2)cc1 | – | – | 75 | 34 | – | –
5 | CCCCC1C(=O)N(c2ccccc2)N(c2ccccc2)C1=O [PHENYLBUTAZONE] | 40 | 37 | 58 | 58 | 24 | 19
6 | C/N=C(/NNS(=O)(=O)c1ccc(C)cc1)c1ccncc1 | 17 | 44 | 33 | 56 | 9 | 27
7 | C/N=C(/NNS(=O)(=O)c1ccccc1)c1ccncc1 | 7 | 16 | – | – | – | –
8 | C/N=C(/NNS(=O)(=O)c1ccc(OC)cc1)c1ccncc1 | 13 | 21 | – | – | – | –
9 | COc1ccc(S(=O)(=O)NN2C(=O)C(=O)N=C2c2cnccn2)cc1 | 12 | 13 | – | – | – | –
10 | COc1ccc(S(=O)(=O)NN2C(=O)C(=O)N=C2c2ccccn2)cc1 | 18 | 20 | – | – | – | –
11 | C/N=C(/NNS(=O)(=O)c1ccc(OC)cc1)c1cnccn1 | 16 | 20 | – | – | – | –
12 | C/N=C(/NNS(=O)(=O)c1ccccc1)c1cnccn1 | 11 | 11 | – | – | – | –
13 | C/N=C(/NNS(=O)(=O)c1ccc(C)cc1)c1ccccn1 | – | – | 75 | 12 | – | –
14 | O=C1N=C(c2cnccn2)N(NS(=O)(=O)c2ccccc2)C1=O | 30 | 25 | – | – | – | –
